Measured values as given in patent US8748426B2, “Inhibitors of diacylglycerol acyl transferase” (Piramal Enterprises Limited, priority 2009, dated 2014).

Molecular target: T1, hDGAT1 (Homo sapiens, UniProt O75907)
T1 sequence (O75907 1-488): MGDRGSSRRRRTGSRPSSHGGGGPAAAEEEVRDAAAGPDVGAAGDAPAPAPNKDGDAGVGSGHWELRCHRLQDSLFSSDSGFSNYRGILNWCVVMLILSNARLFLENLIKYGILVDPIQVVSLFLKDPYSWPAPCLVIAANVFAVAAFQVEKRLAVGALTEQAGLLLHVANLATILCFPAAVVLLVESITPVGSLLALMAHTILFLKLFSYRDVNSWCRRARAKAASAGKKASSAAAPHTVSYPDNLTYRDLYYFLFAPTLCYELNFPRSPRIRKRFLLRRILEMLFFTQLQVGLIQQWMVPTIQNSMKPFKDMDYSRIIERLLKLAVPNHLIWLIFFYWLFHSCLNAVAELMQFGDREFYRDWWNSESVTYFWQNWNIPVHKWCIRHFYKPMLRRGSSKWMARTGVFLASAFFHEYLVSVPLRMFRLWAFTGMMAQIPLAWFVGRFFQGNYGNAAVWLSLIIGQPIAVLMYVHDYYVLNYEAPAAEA
Assay: In-vitro DGAT1 assay (14C oleoyl CoA, hDGAT1 microsomes from Sf9 cells)
Conditions: for inhibition at 1 µM: read-out: % Inhibition of hDGAT1; for % Inhibition of hDGAT1: at 1 μM

inhibition at 1 µM [%] | SMILES | % Inhibition of hDGAT1
10 to 50 | Cc1ccc(NC(=O)Nc2ccc(-c3ccc4c(c3)C(=O)N([C@H](C(=O)O)C(C)C)C4)c(C(F)(F)F)c2)cc1C [Example 422, (S)-2-(6-(4-(3-(3,4-Dimethylphenyl)ureido)-2-(trifluoromethyl)phenyl)-1-oxoisoindolin-2-yl)-3-methylbutanoic acid] | 
 | CC(C)[C@@H](C(=O)O)N1Cc2ccc(-c3ccc(NC(=O)c4ccc(-c5ccccc5)cc4)c(F)c3)cc2C1=O [Example 448, (S)-2-(6-(4-Biphenyl-4-ylcarboxamido-3-fluorophenyl)-1-oxoisoindolin-2-yl)-3-methylbutanoic acid] | ++ (>50% Inhibition)
> 50 | CC(C)[C@@H](C(=O)O)N1Cc2cc(-c3ccc(NC(=O)Nc4cccc(C(F)(F)F)c4)cc3)ccc2C1=O [Example 247, (S)-3-Methyl-2-(1-oxo-5-(4-(3-(3-(trifluoromethyl)phenyl)ureido)phenyl)isoindolin-2-yl)butanoic acid] | 
10 to 50 | COc1ccc(S(=O)(=O)Nc2ccc(-c3ccc4c(c3)CN([C@H](C(=O)O)C(C)C)C4=O)cc2)cc1OC [Example 293, (S)-2-(5-(4-(3,4-Dimethoxyphenylsulfonamido)phenyl)-1-oxoisoindolin-2-yl)-3-methylbutanoic acid] | 
> 50 | CC(C)[C@@H](C(=O)O)N1Cc2ccc(-c3ccc(NC(=O)c4ccc(C(C)(C)C)cc4)cc3F)cc2C1=O [Example 604, (S)-2-(6-(4-(4-(tert-Butyl)benzamido)-2-fluorophenyl)-1-oxoisoindolin-2-yl)-3-methylbutanoic acid] | 
10 to 50 | CC(C)[C@@H](C(=O)O)N1Cc2ccc(-c3ccc(NC(=O)c4ccc5ccccc5c4)cc3C(F)(F)F)cc2C1=O [Example 428, (S)-2-(6-(4-(2-Naphthamido)-2-(trifluoromethyl)phenyl)-1-oxoisoindolin-2-yl)-3-methylbutanoic acid] | 
10 to 50 | CC(C)[C@@H](C(=O)O)N1Cc2ccc(-c3ccc(NC(=O)Nc4ccc(F)c(F)c4)cc3C(F)(F)F)cc2C1=O [Example 418, (S)-2-(6-(4-(3-(3,4-Difluorophenyl)ureido)-2-(trifluoromethyl)phenyl)-1-oxoisoindolin-2-yl)-3-methylbutanoic acid] | 
 | CC(C)[C@@H](C(=O)O)N1Cc2ccc(-c3ccc(NC(=O)c4ccc(-c5ccccc5)cc4)cc3Cl)cc2C1=O [Example 482, (S)-2-(6-(4-Biphenyl-4-ylcarboxamido-2-chlorophenyl)-1-oxoisoindolin-2-yl)-3-methylbutanoic acid] | ++ (>50% Inhibition)
> 50 | O=C(Nc1ccc(-c2ccc3c(c2)C(=O)N(C2CCCC(C(=O)O)C2)C3)cc1)c1cccc(Cl)c1 (stereo not shown) [Example 547, 3-(6-(4-(3-Chlorobenzamido)phenyl)-1-oxoisoindolin-2-yl)cyclohexane carboxylic acid] | 
> 50 | CC(C)[C@@H](C(=O)O)N1Cc2ccc(-c3ccc(NC(=O)c4cccnc4Cl)cc3)cc2C1=O [Example 209, (S)-2-(6-(4-(2-Chloronicotinamido)phenyl)-1-oxoisoindolin-2-yl)-3-methyl butanoic acid] | 
> 50 | Cc1oc(-c2ccccc2)nc1C(=O)Nc1ccc(-c2ccc3c(c2)C(=O)N([C@H](C(=O)O)C(C)C)C3)nc1 [Example 655, (S)-3-Methyl-2-(6-(5-(5-methyl-2-phenyloxazole-4-carboxamido)pyridin-2-yl)-1-oxoisoindolin-2-yl)butanoic acid] | 
> 50 | CC(C)[C@@H](C(=O)O)N1Cc2ccc(-c3ccc(NC(=O)Nc4ccc(Cl)cc4Oc4ccccc4)cc3)cc2C1=O [Example 44, (S)-2-(6-(4-(3-(4-Chloro-2-phenoxyphenyl)ureido)phenyl)-1-oxoisoindolin-2-yl)-3-methylbutanoic acid] | 
> 50 | CC(C)[C@@H](C(=O)O)N1Cc2ccc(-c3ccc(NC(=O)c4cccnc4)cc3)cc2C1=O [Example 207, (S)-3-Methyl-2-(6-(4-(nicotinamido)phenyl)-1-oxoisoindolin-2-yl)butanoic acid] | 
10 to 50 | CC(C)[C@@H](C(=O)O)N1Cc2ccc(-c3ccc(NC(=O)Nc4cccc(F)c4)cc3)cc2C1=O [Example 14, (S)-2-(6-(4-(3-(3-Fluorophenyl)ureido)phenyl)-1-oxoisoindolin-2-yl)-3-methyl butanoic acid] | 
10 to 50 | CC(C)[C@@H](C(=O)O)N1Cc2ccc(-c3ccc(NC(=O)Nc4c(F)cccc4F)cc3)cc2C1=O [Example 20, (S)-2-(6-(4-(3-(2,6-Difluorophenyl)ureido)phenyl)-1-oxoisoindolin-2-yl)-3-methylbutanoic acid] | 
10 to 50 | CC(C)[C@@H](C(=O)O)N1Cc2ccc(-c3ccc(NC(=O)Nc4ccc(F)c(F)c4)cc3)cc2C1=O [Example 32, (S)-2-(6-(4-(3-(3,4-Difluorophenyl)ureido)phenyl)-1-oxoisoindolin-2-yl)-3-methylbutanoic acid] | 

inhibition at 1 µM [%] | SMILES | % Inhibition of hDGAT1
> 50 | CCOc1ccccc1C(=O)Nc1ccc(-c2ccc3c(c2)C(=O)N([C@H](C(=O)O)C(C)C)C3)cc1 [Example 202, (S)-2-(6-(4-(2-Ethoxybenzamido)phenyl)-1-oxoisoindolin-2-yl)-3-methylbutanoic acid] | 
> 50 | CC(C)[C@@H](C(=O)O)N1Cc2ccc(-c3ccc(NC(=O)c4ccc(C(F)(F)F)cc4)cc3)cc2C1=O [Example 102, (S)-3-Methyl-2-(1-oxo-6-(4-(4-(trifluoromethyl)benzamido)phenyl)isoindolin-2-yl)butanoic acid] | 
10 to 50 | CC(C)[C@@H](C(=O)O)N1Cc2ccc(-c3ccc(NC(=O)NCc4ccccc4)cc3)cc2C1=O [Example 18, (S)-2-(6-(4-(3-Benzylureido)phenyl)-1-oxoisoindolin-2-yl)-3-methylbutanoic acid] | 
> 50 | CC(C)[C@@H](C(=O)O)N1Cc2cc(-c3ccc(NC(=O)Nc4ccc(C(F)(F)F)cc4)cc3)ccc2C1=O [Example 245, (S)-3-Methyl-2-(1-oxo-5-(4-(3-(4-(trifluoromethyl)phenyl)ureido)phenyl)isoindolin-2-yl)butanoic acid] | 
10 to 50 | CC(C)[C@@H](C(=O)O)N1Cc2ccc(-c3ccc(NS(=O)(=O)Cc4ccccc4)cc3)cc2C1=O [Example 94, (S)-3-Methyl-2-(1-oxo-6-(4-(phenylmethylsulfonamido)phenyl)isoindolin-2-yl)butanoic acid] | 
> 50 | CC(C)[C@@H](C(=O)O)N1Cc2ccc(-c3ccc(NC(=O)Nc4cccc(C(F)(F)F)c4)cc3)cc2C1=O [Example 38, (S)-3-Methyl-2-(1-oxo-6-(4-(3-(3-(trifluoromethyl)phenyl)ureido)phenyl)isoindolin-2-yl)butanoic acid] | 
10 to 50 | CC(C)[C@@H](C(=O)O)N1Cc2cc(-c3ccc(NC(=S)Nc4ccc(Cl)cc4)cc3)ccc2C1=O [Example 265, (S)-2-(5-(4-(3-(4-Chlorophenyl)thioureido)phenyl)-1-oxoisoindolin-2-yl)-3-methylbutanoic acid] | 
10 to 50 | CC(C)[C@@H](C(=O)O)N1Cc2cc(-c3ccc(NC(=S)Nc4cccc(F)c4)cc3)ccc2C1=O [Example 259, (S)-2-(5-(4-(3-(3-Fluorophenyl)thioureido)phenyl)-1-oxoisoindolin-2-yl)-3-methyl butanoic acid] | 
> 50 | COc1ccc(C(=O)Nc2ccc(-c3ccc4c(c3)C(=O)N([C@H](C(=O)O)C(C)C)C4)cc2)cc1 [Example 104, (S)-2-(6-(4-(4-Methoxybenzamido)phenyl)-1-oxoisoindolin-2-yl)-3-methyl butanoic acid] | 
> 50 | CCCCCCCCc1ccc(C(=O)Nc2ccc(-c3ccc4c(c3)C(=O)N([C@H](C(=O)O)C(C)C)C4)cc2)cc1 [Example 172, (S)-3-Methyl-2-(6-(4-(4-octylbenzamido)phenyl)-1-oxoisoindolin-2-yl)butanoic acid] | 
> 50 | CCCCCc1ccc(C(=O)Nc2ccc(-c3ccc4c(c3)C(=O)N(C3(C(=O)O)CCCC3)C4)cc2)cc1 [Example 537, 1-(1-Oxo-6-(4-(4-pentylbenzamido)phenyl)isoindolin-2-yl)cyclopentane carboxylic acid] | 
10 to 50 | CC(C)[C@@H](C(=O)O)N1Cc2ccc(-c3ccc(NC(=S)Nc4cccc(F)c4)cc3)cc2C1=O [Example 56, (S)-2-(6-(4-(3-(3-Fluorophenyl)thioureido)phenyl)-1-oxoisoindolin-2-yl)-3-methylbutanoic acid] | 
> 50 | CCc1ccc(C(=O)Nc2ccc(-c3ccc4c(c3)C(=O)N([C@H](C(=O)O)C(C)C)C4)cc2)cc1 [Example 168, (S)-2-(6-(4-(4-Ethylbenzamido)phenyl)-1-oxoisoindolin-2-yl)-3-methylbutanoic acid] | 
> 50 | CC(C)[C@@H](C(=O)O)N1Cc2ccc(-c3ccc(NC(=O)c4ccc(C5CCCCC5)cc4)cc3)cc2C1=O [Example 174, (S)-2-(6-(4-(4-Cyclohexylbenzamido)phenyl)-1-oxoisoindolin-2-yl)-3-methyl butanoic acid] | 
> 50 | CC(C)[C@@H](C(=O)O)N1Cc2ccc(-c3ccc(NC(=O)c4ccc(C(F)(F)F)c(F)c4)cc3)cc2C1=O [Example 196, (S)-2-(6-(4-(3-Fluoro-4-(trifluoromethyl)benzamido)phenyl)-1-oxoisoindolin-2-yl)-3-methylbutanoic acid] | 
